{"source": "patent US5409953A", "about": "“Isolation, structural elucidation and synthesis of novel antineoplastic substances denominated \"combretastatins\"” (Arizona Board of Regents acting on behalf of Arizona State …, priority 1992, dated 1995)", "key": {"tubulin [1]": {"tested_on": "tubulin", "test": "binding of [3H]colchicine to tubulin", "settings": "Experiment II; for colchicine binding, % of control: 5 μM [3H]colchicine, competing drug at 5 μM, 10 minutes at 37° C.", "experimental": "(§1) Incubation was for 10 minutes at 37° C."}, "tubulin [2]": {"tested_on": "tubulin", "settings": "cited from earlier work"}, "tubulin [3]": {"tested_on": "tubulin", "test": "microtubule assembly (turbidimetric)", "type": "biochemical", "settings": "for IC50: Experiment I; for inhibition of microtubule assembly / tubulin polymerization in words: comparison with reference agents", "experimental": "(§2) The assembly reaction at 37° C. was followed turbidimetrically as described by Hamel et al, Biochem. Pharmacal., 32, p."}, "[4]": {"tested_on": "murine P388 lymphocytic leukemia (PS system)", "test": "inhibition of PS cell line growth (Ed50)", "type": "cell-based", "settings": "for IC50: Mus musculus"}, "NCI astrocytoma": {"tested_on": "NCI astrocytoma", "test": "NCI astrocytoma bioassay", "type": "cell-based"}, "tubulin [5]": {"tested_on": "tubulin", "test": "in vitro interactions with tubulin (overall comparison)", "type": "biochemical", "experimental": "as §2, §1"}, "[6]": {"tested_on": "murine P388 lymphocytic leukemia (PS system)", "test": "PS in vivo life extension", "settings": "2.75-11 mg/kg dose levels"}, "[7]": {"settings": "read-out: ID50, drug concentration inhibiting the extent of microtubule assembly by 50%, 37° C., 1.5 mg/ml tubulin, 0.5 mg/ml microtubule-associated proteins"}, "[8]": {"settings": "read-out: concentration giving equivalent inhibition of microtubule assembly"}}, "note": "Entries after “also recorded” stand apart in the source; their conditions may differ. Read-outs that look alike come from different tables or passages of the source.", "data": [{"smiles": "COc1cc2c(c(OC)c1OC)-c1cc3c(cc1C(OC(C)=O)[C@H]1COC(=O)[C@@H]1C2)OCO3", "note": "(stereo partly drawn) [Steganacin, reference compound]", "values": [{"measurement": "colchicine binding, % of control", "setting": "tubulin [1]", "result": "49 % of control"}, {"measurement": "mode of inhibition of binding of radiolabeled colchicine", "setting": "tubulin [2]", "result": "competitive inhibitors"}, {"measurement": "IC50", "setting": "tubulin [3]; [7]", "result": 6000, "unit": "nM"}]}, {"smiles": "COc1cc(CCc2ccc(O)cc2)cc(OC)c1OC", "note": "[4'-hydroxy-3,4,5-trimethoxy bibenzyl]", "values": [{"measurement": "IC50", "setting": "[4]; P388 (PS) cell line", "result": 0.25, "unit": "µg/mL"}]}, {"smiles": "COc1cc(/C=C/c2ccc(OC)c(OC(C)=O)c2OC(C)=O)cc(OC)c1OC", "note": "[trans-isomer counter part, 2',3'-diacetoxy-4'-methoxy-E-combretastatin A-1]", "values": [{"measurement": "IC50", "setting": "[4]; P388 (PS) cell line", "result": 12, "unit": "µg/mL"}, {"measurement": "PS cell line activity in words", "setting": "[4]; P388 (PS) cell line", "result": "essentially inactive"}]}, {"smiles": "COc1ccc(C[C@@H](O)c2cc(OC)c(OC)c(OC)c2)cc1O", "note": "[Combretastatin, R(-)-1-(3,4,5-tri-methoxyphenyl)-2-(3'-hydroxy, 4'-methoxyphenyl)-ethanol]", "values": [{"measurement": "colchicine binding, % of control", "setting": "tubulin [1]", "result": "34 % of control"}, {"measurement": "mode of inhibition of binding of radiolabeled colchicine", "setting": "tubulin [2]", "result": "competitive inhibitors"}, {"measurement": "astrocyte reversal", "setting": "NCI astrocytoma", "result": "pronounced astrocyte reversal"}, {"measurement": "IC50", "setting": "tubulin [3]; [8]", "result": 11000, "unit": "nM"}]}, {"smiles": "COc1cc(CCc2ccc(O)c(O)c2)cc(OC)c1OC", "note": "[Combretastatin B-3]", "values": [{"measurement": "IC50", "setting": "[4]; P388 (PS) cell line", "result": 0.4, "unit": "µg/mL"}]}, {"smiles": "COc1ccc(/C=C\\c2cc(OC)c(OC)c(OC)c2)c(O)c1O", "note": "[Combretastatin A-1]", "values": [{"measurement": "inhibition of binding of (3H)colchicine to tubulin in words", "setting": "tubulin [1]", "result": "particularly potent"}, {"measurement": "colchicine binding, % of control", "setting": "tubulin [1]", "result": "2.2 % of control"}, {"measurement": "interactions with tubulin in words", "setting": "tubulin [5]", "result": "more active than combretastatin B-1; also recorded: significantly more potent than the previously described combretastatin"}, {"measurement": "increase in life extension", "setting": "[6]", "result": "26-29%"}, {"measurement": "IC50", "setting": "[4]; P388 (PS) cell line", "result": 0.99, "unit": "µg/mL"}, {"measurement": "IC50", "setting": "tubulin [3]; [8]", "result": 2000, "unit": "nM"}, {"measurement": "inhibition of microtubule assembly / tubulin polymerization in words", "setting": "tubulin [3]", "result": "more potent than combretastatin and the well known tubulin inhibitors colchicine and podophylotoxin"}, {"measurement": "inhibition of microtubule assembly / tubulin polymerization in words", "setting": "tubulin [3]; listed as combretastatins A-1", "result": "comparable to that observed with podophyllotoxin and greater than that observed with colchicine and steganacin"}, {"measurement": "concentration completely inhibiting microtubulin assembly in vitro", "setting": "tubulin [3]; complete inhibition", "result": "less than 1.5 μmolar"}]}, {"smiles": "COc1ccc(CCc2cc(OC)c(OC)c(OC)c2)c(O)c1O", "note": "[Combretastatin B-1]", "values": [{"measurement": "inhibition of binding of (3H)colchicine to tubulin in words", "setting": "tubulin [1]", "result": "particularly potent"}, {"measurement": "colchicine binding, % of control", "setting": "tubulin [1]", "result": "13 % of control"}, {"measurement": "interactions with tubulin in words", "setting": "tubulin [5]", "result": "significantly more potent than the previously described combretastatin"}, {"measurement": "IC50", "setting": "[4]; P388 (PS) cell line", "result": 1.7, "unit": "µg/mL"}, {"measurement": "IC50", "setting": "tubulin [3]; [8]", "result": 3000, "unit": "nM"}, {"measurement": "inhibition of microtubule assembly / tubulin polymerization in words", "setting": "tubulin [3]", "result": "comparable to that observed with podophyllotoxin and greater than that observed with colchicine and steganacin"}]}, {"smiles": "COc1cc([C@@H]2c3cc4c(cc3[C@H](O)[C@H]3COC(=O)[C@H]23)OCO4)cc(OC)c1OC", "note": "[Podophyllotoxin, reference compound]", "values": [{"measurement": "colchicine binding, % of control", "setting": "tubulin [1]", "result": "13 % of control"}, {"measurement": "mode of inhibition of binding of radiolabeled colchicine", "setting": "tubulin [2]", "result": "competitive inhibitors"}, {"measurement": "IC50", "setting": "tubulin [3]; [7]", "result": "[…]"}]}, {"smiles": "COc1ccc(/C=C\\c2cc(OC)c3c(c2)OCO3)cc1O", "note": "[Combretastatin A-2]", "values": [{"measurement": "IC50", "setting": "[4]; P388 (PS) cell line", "result": 0.027, "unit": "µg/mL"}]}, {"smiles": "COc1cc(CCc2ccc(OC)c(O)c2)cc(OC)c1", "note": "[3'-hydroxy-3,4',5-trimethoxy bibenzyl]", "values": [{"measurement": "IC50", "setting": "[4]; P388 (PS) cell line", "result": 1.7, "unit": "µg/mL"}]}, {"smiles": "COc1ccc(/C=C\\c2cc(O)c(OC)c(OC)c2)cc1O", "note": "[Combretastatin A-3]", "values": [{"measurement": "IC50", "setting": "[4]; P388 (PS) cell line", "result": 0.026, "unit": "µg/mL"}]}, {"smiles": "COc1ccc(CCc2cc(O)c(OC)c(OC)c2)cc1O", "note": "[Combretastatin B-2]", "values": [{"measurement": "IC50", "setting": "[4]; P388 (PS) cell line", "result": 0.32, "unit": "µg/mL"}]}, {"smiles": "COc1cc(/C=C\\c2ccc(OC)c(OC(C)=O)c2OC(C)=O)cc(OC)c1OC", "note": "[Combretastatin A-1 d lacerate, 2', 3'-diacetoxy-4'-methoxy-Z-combretastatin A-1]", "values": [{"measurement": "IC50", "setting": "[4]; P388 (PS) cell line", "result": 2.7, "unit": "µg/mL"}, {"measurement": "activity relative to parent natural product combretastatin A-1", "setting": "[4]; PS cell line", "result": "three-fold less active"}]}, {"smiles": "COc1cc(CCc2ccc(O)c(O)c2)cc(OC)c1", "note": "[Combretastatin B-4]", "values": [{"measurement": "IC50", "setting": "[4]; P388 (PS) cell line", "result": 1.7, "unit": "µg/mL"}]}]}
